The test system of the first assay is NCI-H1666. The assay can be described thus: relative viability (nuclei count vs DMSO), 5 days (fraction); higher = more cells survive. Particulars: first compound 0.2 µM. Summed up:
(§1)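 Lung cancer cell lines were seeded in 1536-well plates and dosed by pin tool the next day, with either a single drug or a fixed anchor-drug dose combined with five library-drug doses (not always all listed) spaced in √10 steps. Five days later, one step fixed the cells and stained their nuclei (final 0.05% Triton X-100, 1% formaldehyde, 1 ug/ml Hoechst), and nuclei were counted on 4× images. Relative viability is the nuclei count in treated wells divided by the count in vehicle wells, and each value is the median of duplicate plates.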
Regarding `COCC1(CO)C(=O)C2CCN1CC2` (stereo not given) [PRIMA-1MET] + Nc1ncn([C@H]2C[C@H](O)[C@@H](CO)O2)c(=O)n1 [Decitabine] (partner 2 µM), the relative viability came to 0.637.
The same measure, in the same setting: as for `COCC1(CO)C(=O)C2CCN1CC2` (stereo not given) [PRIMA-1MET] + O=C(c1cc(Cc2n[nH]c(=O)c3ccccc23)ccc1F)N1CCN(C(=O)C2CC2)CC1 [Olaparib] (partner 8 µM), the figure is 0.773; as for `COCC1(CO)C(=O)C2CCN1CC2` (stereo not given) [PRIMA-1MET] + C[C@@H](Oc1cc(-c2cnn(C3CCNCC3)c2)cnc1N)c1c(Cl)ccc(F)c1Cl [Crizotinib] (partner 1 µM), 1.15.

Still in this assay, the particulars now being: first compound 0.6325 µM.
With `COCC1(CO)C(=O)C2CCN1CC2` (stereo not given) [PRIMA-1MET] + CC(C)C[C@H](NC(=O)[C@H](Cc1ccccc1)NC(=O)c1cnccn1)B(O)O [Bortezomib] (partner 0.002 µM), the relative viability came out at 0.777.
On the same count and under the same terms, in the case of `COCC1(CO)C(=O)C2CCN1CC2` (stereo not given) [PRIMA-1MET] + CC(=O)Nc1cccc(-n2c(=O)n(C3CC3)c(=O)c3c(Nc4ccc(I)cc4F)n(C)c(=O)c(C)c32)c1 [Trametinib] (partner 0.02 µM) it was 0.815.
For the compound `COCC1(CO)C(=O)C2CCN1CC2` (stereo not given) [PRIMA-1MET] + Nc1ncn([C@H]2C[C@H](O)[C@@H](CO)O2)c(=O)n1 [Decitabine] (partner 2 µM), the relative viability was 0.492.
In the case of `COCC1(CO)C(=O)C2CCN1CC2` (stereo not given) [PRIMA-1MET] + O=C(c1cc(Cc2n[nH]c(=O)c3ccccc23)ccc1F)N1CCN(C(=O)C2CC2)CC1 [Olaparib] (partner 8 µM), the relative viability stood at 0.753.
Still for that read-out and setting: in the case of `COCC1(CO)C(=O)C2CCN1CC2` (stereo not given) [PRIMA-1MET] + C[C@@H](Oc1cc(-c2cnn(C3CCNCC3)c2)cnc1N)c1c(Cl)ccc(F)c1Cl [Crizotinib] (partner 1 µM) it was 0.9.

Staying with this assay, now noted: first compound 2 µM.
For the compound `COCC1(CO)C(=O)C2CCN1CC2` (stereo not given) [PRIMA-1MET] + CC(C)C[C@H](NC(=O)[C@H](Cc1ccccc1)NC(=O)c1cnccn1)B(O)O [Bortezomib] (partner 0.002 µM), the relative viability is 0.816.
Still for that read-out and setting: in the case of `COCC1(CO)C(=O)C2CCN1CC2` (stereo not given) [PRIMA-1MET] + CC(=O)Nc1cccc(-n2c(=O)n(C3CC3)c(=O)c3c(Nc4ccc(I)cc4F)n(C)c(=O)c(C)c32)c1 [Trametinib] (partner 0.02 µM) it was 0.965.
The compound `COCC1(CO)C(=O)C2CCN1CC2` (stereo not given) [PRIMA-1MET] + Nc1ncn([C@H]2C[C@H](O)[C@@H](CO)O2)c(=O)n1 [Decitabine] (partner 2 µM) came in with a relative viability of 0.645.
Still for that read-out and setting: in the case of `COCC1(CO)C(=O)C2CCN1CC2` (stereo not given) [PRIMA-1MET] + O=C(c1cc(Cc2n[nH]c(=O)c3ccccc23)ccc1F)N1CCN(C(=O)C2CC2)CC1 [Olaparib] (partner 8 µM) it was 0.801; in that of `COCC1(CO)C(=O)C2CCN1CC2` (stereo not given) [PRIMA-1MET] + C[C@@H](Oc1cc(-c2cnn(C3CCNCC3)c2)cnc1N)c1c(Cl)ccc(F)c1Cl [Crizotinib] (partner 1 µM), 0.987.

The same assay, now with this note: first compound 6.325 µM.
Regarding `COCC1(CO)C(=O)C2CCN1CC2` (stereo not given) [PRIMA-1MET] + CC(C)C[C@H](NC(=O)[C@H](Cc1ccccc1)NC(=O)c1cnccn1)B(O)O [Bortezomib] (partner 0.002 µM), the relative viability stood at 0.983.
Still for that read-out and setting: in the case of `COCC1(CO)C(=O)C2CCN1CC2` (stereo not given) [PRIMA-1MET] + CC(=O)Nc1cccc(-n2c(=O)n(C3CC3)c(=O)c3c(Nc4ccc(I)cc4F)n(C)c(=O)c(C)c32)c1 [Trametinib] (partner 0.02 µM) it was 0.759; in that of `COCC1(CO)C(=O)C2CCN1CC2` (stereo not given) [PRIMA-1MET] + Nc1ncn([C@H]2C[C@H](O)[C@@H](CO)O2)c(=O)n1 [Decitabine] (partner 2 µM), 0.724; in that of `COCC1(CO)C(=O)C2CCN1CC2` (stereo not given) [PRIMA-1MET] + O=C(c1cc(Cc2n[nH]c(=O)c3ccccc23)ccc1F)N1CCN(C(=O)C2CC2)CC1 [Olaparib] (partner 8 µM), 0.735.
The same measure, in the same setting: in the case of `COCC1(CO)C(=O)C2CCN1CC2` (stereo not given) [PRIMA-1MET] + C[C@@H](Oc1cc(-c2cnn(C3CCNCC3)c2)cnc1N)c1c(Cl)ccc(F)c1Cl [Crizotinib] (partner 1 µM) it was 1.25.

The same assay, now with this note: first compound 20 µM.
Take `COCC1(CO)C(=O)C2CCN1CC2` (stereo not given) [PRIMA-1MET] + CC(C)C[C@H](NC(=O)[C@H](Cc1ccccc1)NC(=O)c1cnccn1)B(O)O [Bortezomib] (partner 0.002 µM): the relative viability was 0.305.
On the same count and under the same terms, as for `COCC1(CO)C(=O)C2CCN1CC2` (stereo not given) [PRIMA-1MET] + CC(=O)Nc1cccc(-n2c(=O)n(C3CC3)c(=O)c3c(Nc4ccc(I)cc4F)n(C)c(=O)c(C)c32)c1 [Trametinib] (partner 0.02 µM), the figure is 0.877; as for `COCC1(CO)C(=O)C2CCN1CC2` (stereo not given) [PRIMA-1MET] + Nc1ncn([C@H]2C[C@H](O)[C@@H](CO)O2)c(=O)n1 [Decitabine] (partner 2 µM), 0.756; as for `COCC1(CO)C(=O)C2CCN1CC2` (stereo not given) [PRIMA-1MET] + O=C(c1cc(Cc2n[nH]c(=O)c3ccccc23)ccc1F)N1CCN(C(=O)C2CC2)CC1 [Olaparib] (partner 8 µM), 0.739.
`COCC1(CO)C(=O)C2CCN1CC2` (stereo not given) [PRIMA-1MET] + C[C@@H](Oc1cc(-c2cnn(C3CCNCC3)c2)cnc1N)c1c(Cl)ccc(F)c1Cl [Crizotinib] (partner 1 µM) gave a relative viability of 0.443.

Another assay deals with NCI-H2347. The assay is described as above. Particulars: first compound 0.2 µM. The method in brief: as §1
Turning to `COCC1(CO)C(=O)C2CCN1CC2` (stereo not given) [PRIMA-1MET] + CC(C)C[C@H](NC(=O)[C@H](Cc1ccccc1)NC(=O)c1cnccn1)B(O)O [Bortezomib] (partner 0.002 µM), the relative viability stood at 1.33.
On the same count and under the same terms, in the case of `COCC1(CO)C(=O)C2CCN1CC2` (stereo not given) [PRIMA-1MET] + CC(=O)Nc1cccc(-n2c(=O)n(C3CC3)c(=O)c3c(Nc4ccc(I)cc4F)n(C)c(=O)c(C)c32)c1 [Trametinib] (partner 0.02 µM) it was 0.286; in that of `COCC1(CO)C(=O)C2CCN1CC2` (stereo not given) [PRIMA-1MET] + Nc1ncn([C@H]2C[C@H](O)[C@@H](CO)O2)c(=O)n1 [Decitabine] (partner 2 µM), 0.705; in that of `COCC1(CO)C(=O)C2CCN1CC2` (stereo not given) [PRIMA-1MET] + O=C(c1cc(Cc2n[nH]c(=O)c3ccccc23)ccc1F)N1CCN(C(=O)C2CC2)CC1 [Olaparib] (partner 8 µM), 0.641.
Same read-out and setting: as for `COCC1(CO)C(=O)C2CCN1CC2` (stereo not given) [PRIMA-1MET] + C[C@@H](Oc1cc(-c2cnn(C3CCNCC3)c2)cnc1N)c1c(Cl)ccc(F)c1Cl [Crizotinib] (partner 1 µM), the figure is 0.705.

The assay is the same for the next values; noted with them: first compound 0.6325 µM.
In the case of `COCC1(CO)C(=O)C2CCN1CC2` (stereo not given) [PRIMA-1MET] + CC(C)C[C@H](NC(=O)[C@H](Cc1ccccc1)NC(=O)c1cnccn1)B(O)O [Bortezomib] (partner 0.002 µM), the relative viability amounted to 1.11.
Still for that read-out and setting: as for `COCC1(CO)C(=O)C2CCN1CC2` (stereo not given) [PRIMA-1MET] + CC(=O)Nc1cccc(-n2c(=O)n(C3CC3)c(=O)c3c(Nc4ccc(I)cc4F)n(C)c(=O)c(C)c32)c1 [Trametinib] (partner 0.02 µM), the figure is 0.303.

The record behind these values is the supplement of paper PMC10307832.
